Here are results for ten compounds from US7365096B2, “Methods for selectively inhibiting Janus tyrosine kinase 3 (Jak3)” (Board of Regents, The University of Texas System, priority 2002, dated 2008).

Data set [1] concerns the target T1, Jak3 (Homo sapiens, UniProt P52333).
T1 sequence (P52333 1-1124): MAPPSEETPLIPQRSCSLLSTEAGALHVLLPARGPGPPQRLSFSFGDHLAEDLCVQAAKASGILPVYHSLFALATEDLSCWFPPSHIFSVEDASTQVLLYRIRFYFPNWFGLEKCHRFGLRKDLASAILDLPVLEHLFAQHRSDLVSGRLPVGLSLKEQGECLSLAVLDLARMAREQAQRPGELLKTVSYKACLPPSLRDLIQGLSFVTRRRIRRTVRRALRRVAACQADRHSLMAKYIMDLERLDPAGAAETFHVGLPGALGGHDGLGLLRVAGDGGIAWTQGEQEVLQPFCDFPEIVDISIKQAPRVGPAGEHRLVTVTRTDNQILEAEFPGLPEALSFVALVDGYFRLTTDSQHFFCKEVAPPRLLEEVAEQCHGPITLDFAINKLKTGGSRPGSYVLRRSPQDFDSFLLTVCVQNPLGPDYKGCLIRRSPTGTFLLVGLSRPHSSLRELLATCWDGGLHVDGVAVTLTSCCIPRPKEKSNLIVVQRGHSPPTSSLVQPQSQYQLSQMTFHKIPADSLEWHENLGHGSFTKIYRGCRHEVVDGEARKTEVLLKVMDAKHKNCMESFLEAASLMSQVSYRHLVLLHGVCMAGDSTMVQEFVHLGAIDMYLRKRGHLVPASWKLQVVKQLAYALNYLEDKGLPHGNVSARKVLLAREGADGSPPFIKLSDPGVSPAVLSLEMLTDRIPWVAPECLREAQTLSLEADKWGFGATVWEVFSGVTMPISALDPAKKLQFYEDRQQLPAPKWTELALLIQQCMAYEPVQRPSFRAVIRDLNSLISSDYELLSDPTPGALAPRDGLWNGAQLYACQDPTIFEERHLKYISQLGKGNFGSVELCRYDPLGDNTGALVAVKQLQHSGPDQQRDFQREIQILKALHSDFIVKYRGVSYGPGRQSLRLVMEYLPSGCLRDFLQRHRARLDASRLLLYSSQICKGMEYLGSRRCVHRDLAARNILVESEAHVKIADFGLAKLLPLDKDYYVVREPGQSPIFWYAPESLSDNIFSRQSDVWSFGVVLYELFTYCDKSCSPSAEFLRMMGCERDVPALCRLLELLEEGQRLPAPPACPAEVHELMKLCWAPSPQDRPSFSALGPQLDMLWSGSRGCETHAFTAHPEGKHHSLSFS
The following applies: cited from earlier work.

The next data set concerns the target Jak1 (Homo sapiens, UniProt P23458). The following applies: cited from earlier work.
For data set [2], the system named is T-cell proliferation mediated by TCGFs. Particulars: cited from earlier work.
The next data set has as its target p56Lck (Homo sapiens, UniProt P06239). The following applies: cited from earlier work.
The target in a further data set is T2, Zap70 (Homo sapiens, UniProt P43403).
T2 sequence (P43403 1-619): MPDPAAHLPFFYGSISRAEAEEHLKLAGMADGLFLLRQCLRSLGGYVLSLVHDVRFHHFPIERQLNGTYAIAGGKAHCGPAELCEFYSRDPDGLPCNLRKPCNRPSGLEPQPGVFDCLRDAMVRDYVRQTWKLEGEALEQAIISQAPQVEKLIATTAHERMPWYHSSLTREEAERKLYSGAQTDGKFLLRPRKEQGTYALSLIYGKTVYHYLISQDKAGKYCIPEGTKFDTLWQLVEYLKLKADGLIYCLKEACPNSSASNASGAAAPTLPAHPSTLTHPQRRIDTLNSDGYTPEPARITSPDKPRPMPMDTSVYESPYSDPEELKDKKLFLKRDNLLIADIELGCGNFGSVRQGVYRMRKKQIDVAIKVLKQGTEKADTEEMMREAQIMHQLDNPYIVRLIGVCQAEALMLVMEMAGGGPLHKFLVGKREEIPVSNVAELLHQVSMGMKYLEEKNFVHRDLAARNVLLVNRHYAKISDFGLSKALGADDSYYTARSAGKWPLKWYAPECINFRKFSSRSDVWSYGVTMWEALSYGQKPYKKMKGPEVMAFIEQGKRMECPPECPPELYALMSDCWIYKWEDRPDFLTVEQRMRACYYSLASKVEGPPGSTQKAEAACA
The following applies: cited from earlier work.

In a further data set the target is Syk (Homo sapiens, UniProt P43405). Particulars: cited from earlier work.
The target in the next data set is Lyn (Homo sapiens, UniProt P07948). Particulars: cited from earlier work.
In another data set the target is Btk (Homo sapiens, UniProt Q06187). The following applies: cited from earlier work.
The target in the next data set is Tyk2 (Homo sapiens, UniProt P29597). The following applies: cited from earlier work.
The target of a further data set is Lck (Homo sapiens, UniProt P06239). The following applies: cited from earlier work.
For a further data set, the target named is Src (Homo sapiens, UniProt P12931). Particulars: cited from earlier work.
In data set [3] the test system is graft infiltrating mononuclear cells (GICs). Particulars: rat, in vivo; cited from earlier work.
The next data set concerns Jak. The following applies: cited from earlier work.
Data set [4] deals with Jak3 mediated T-cell growth. The following applies: cited from earlier work.
For data set [5], the system named is γc/Jak3-dependent PHA-activated human T cells. As to the kind of experiment: Proliferation of PHA-activated human T cells ([3H]-thymidine). The following applies: for proliferation of PHA-activated human T cells following stimulation with IL-2 (FIG. 7A): IL-2 stimulated. The data set is classed as cell-based. As for the experimental part:
Cell culture and treatment. The rat T-cell line Nb2-11c, originally developed by Dr. Peter Gout (Vancouver, Canada), was grown in RPMI-1640 with 10% fetal calf serum (Intergen, cat. no. 1020-90), 2 mM L-glutamine, 5 mM HEPES, pH 7.3, and penicillin-streptomycin (50 IU/ml and 50 μg/ml, respectively), at 37° C./5% CO2. Freshly explanted normal human T lymphocytes purified by isocentrifugation (Ficoll®; EM Science, Gibbstown, N.J.) were phytohemagglutinin (PHA)-activated for 72 hours as previously described.^23 T lymphocytes were made quiescent by washing and incubating for 24 hours in RPMI-1640 medium containing 1% fetal calf serum before exposure to cytokines. […] The Mannich base 649641P (NC1153) was generously provided by Dr. Jonathan Dimmock College of Pharmacy, University of Saskatchewan, Saskatoon, Saskatchewan, Canada. All cells were then stimulated with 1 nM recombinant human IL-2 (Hoffman-LaRoche, Basel, Switzerland), IL4 or IL7 (PeproTech), or ovine prolactin (PRL) supplied by the National Hormone and Pituitary Program, National Institute of Diabetes, Digestive, and Kidney Disease (Bethesda, Md.), at 37° C. Cell pellets were frozen at −70° C.
Proliferation assays. Quiescent human primary T-cells, YT or rat Nb2-11c T-cells (5.0×10^4/well) were plated in flat-bottom, 96-well microtiter plates in 200 μl of quiescent media in the absence or presence of 1 nM IL-2, -4, -7 (PeproTech, Rock Hill, N.J.), or PRL. Next, cells were treated for 16 hours with the Mannich base drug and then pulsed for 4 hours with [^3H]-thymidine (0.5 μCi/200 μl) and harvested onto fiberglass filters. [^3H]-thymidine incorporation was analyzed by liquid scintillation counting as previously described,^23 or using standard techniques that are well known in the art.

In another data set the test system is allograft. The following applies: in vivo; cited from earlier work.
In data set [6] the target is T1, Jak3. Particulars: cited from earlier work. The source holds these as a separate data set.
The conditions of data set [7]: rat, in vivo.

p56Lck, sequence (P06239 whole entry, species assumed): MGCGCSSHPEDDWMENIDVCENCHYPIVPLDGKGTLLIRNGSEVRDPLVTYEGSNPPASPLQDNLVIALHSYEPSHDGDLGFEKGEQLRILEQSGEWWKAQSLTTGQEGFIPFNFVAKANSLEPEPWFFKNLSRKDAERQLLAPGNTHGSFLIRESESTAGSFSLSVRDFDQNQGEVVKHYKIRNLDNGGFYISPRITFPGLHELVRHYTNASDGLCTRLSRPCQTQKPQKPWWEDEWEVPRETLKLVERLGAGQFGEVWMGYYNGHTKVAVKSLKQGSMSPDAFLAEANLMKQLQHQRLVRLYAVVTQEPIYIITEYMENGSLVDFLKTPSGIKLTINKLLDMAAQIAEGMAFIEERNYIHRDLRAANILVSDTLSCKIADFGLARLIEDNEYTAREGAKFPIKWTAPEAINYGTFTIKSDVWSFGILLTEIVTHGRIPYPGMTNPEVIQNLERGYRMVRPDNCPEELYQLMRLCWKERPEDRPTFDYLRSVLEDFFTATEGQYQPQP
Jak1, sequence (P23458 whole entry, species assumed): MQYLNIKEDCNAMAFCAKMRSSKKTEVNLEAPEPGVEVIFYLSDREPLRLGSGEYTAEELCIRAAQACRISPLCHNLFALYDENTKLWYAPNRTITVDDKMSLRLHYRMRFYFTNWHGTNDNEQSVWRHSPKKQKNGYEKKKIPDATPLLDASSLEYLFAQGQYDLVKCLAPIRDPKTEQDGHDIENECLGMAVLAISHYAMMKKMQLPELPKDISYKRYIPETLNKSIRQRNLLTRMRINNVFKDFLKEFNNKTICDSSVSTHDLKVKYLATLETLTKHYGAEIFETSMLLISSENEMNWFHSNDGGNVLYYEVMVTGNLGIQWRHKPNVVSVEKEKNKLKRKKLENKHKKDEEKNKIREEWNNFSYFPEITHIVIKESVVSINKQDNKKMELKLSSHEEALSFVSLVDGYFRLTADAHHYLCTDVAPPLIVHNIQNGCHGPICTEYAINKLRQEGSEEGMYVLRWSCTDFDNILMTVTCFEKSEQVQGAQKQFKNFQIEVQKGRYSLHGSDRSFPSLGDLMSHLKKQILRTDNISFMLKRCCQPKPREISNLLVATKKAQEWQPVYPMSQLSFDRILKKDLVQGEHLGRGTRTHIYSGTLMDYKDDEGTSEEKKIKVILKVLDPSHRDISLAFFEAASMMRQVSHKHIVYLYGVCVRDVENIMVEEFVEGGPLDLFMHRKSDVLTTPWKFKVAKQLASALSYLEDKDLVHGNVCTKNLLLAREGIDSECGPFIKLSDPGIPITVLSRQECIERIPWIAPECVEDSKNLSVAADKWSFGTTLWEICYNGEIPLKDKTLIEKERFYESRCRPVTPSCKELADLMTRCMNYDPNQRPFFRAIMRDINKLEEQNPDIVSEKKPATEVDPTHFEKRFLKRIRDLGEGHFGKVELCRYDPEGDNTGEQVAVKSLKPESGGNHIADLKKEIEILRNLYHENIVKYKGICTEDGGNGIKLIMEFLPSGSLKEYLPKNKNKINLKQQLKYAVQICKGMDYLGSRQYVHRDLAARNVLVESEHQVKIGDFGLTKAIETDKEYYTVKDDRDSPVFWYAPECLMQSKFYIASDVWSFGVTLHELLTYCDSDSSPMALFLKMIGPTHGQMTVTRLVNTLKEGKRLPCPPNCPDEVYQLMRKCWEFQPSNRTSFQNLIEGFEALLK
Src, sequence (P12931 whole entry, species assumed): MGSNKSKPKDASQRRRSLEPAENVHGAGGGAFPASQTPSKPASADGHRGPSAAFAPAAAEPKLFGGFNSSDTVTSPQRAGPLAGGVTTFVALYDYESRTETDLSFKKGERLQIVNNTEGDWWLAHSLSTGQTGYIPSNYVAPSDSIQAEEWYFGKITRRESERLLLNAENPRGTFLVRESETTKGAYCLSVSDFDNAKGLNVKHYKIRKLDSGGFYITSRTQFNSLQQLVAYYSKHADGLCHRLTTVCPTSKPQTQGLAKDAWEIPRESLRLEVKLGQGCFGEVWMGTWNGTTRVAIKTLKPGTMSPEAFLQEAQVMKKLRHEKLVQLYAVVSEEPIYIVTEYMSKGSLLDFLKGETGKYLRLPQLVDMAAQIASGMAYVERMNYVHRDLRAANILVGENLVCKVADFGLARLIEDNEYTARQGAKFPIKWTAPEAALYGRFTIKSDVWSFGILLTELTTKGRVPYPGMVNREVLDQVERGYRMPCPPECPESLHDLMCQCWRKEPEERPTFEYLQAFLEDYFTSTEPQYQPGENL
Btk, sequence (Q06187 whole entry, species assumed): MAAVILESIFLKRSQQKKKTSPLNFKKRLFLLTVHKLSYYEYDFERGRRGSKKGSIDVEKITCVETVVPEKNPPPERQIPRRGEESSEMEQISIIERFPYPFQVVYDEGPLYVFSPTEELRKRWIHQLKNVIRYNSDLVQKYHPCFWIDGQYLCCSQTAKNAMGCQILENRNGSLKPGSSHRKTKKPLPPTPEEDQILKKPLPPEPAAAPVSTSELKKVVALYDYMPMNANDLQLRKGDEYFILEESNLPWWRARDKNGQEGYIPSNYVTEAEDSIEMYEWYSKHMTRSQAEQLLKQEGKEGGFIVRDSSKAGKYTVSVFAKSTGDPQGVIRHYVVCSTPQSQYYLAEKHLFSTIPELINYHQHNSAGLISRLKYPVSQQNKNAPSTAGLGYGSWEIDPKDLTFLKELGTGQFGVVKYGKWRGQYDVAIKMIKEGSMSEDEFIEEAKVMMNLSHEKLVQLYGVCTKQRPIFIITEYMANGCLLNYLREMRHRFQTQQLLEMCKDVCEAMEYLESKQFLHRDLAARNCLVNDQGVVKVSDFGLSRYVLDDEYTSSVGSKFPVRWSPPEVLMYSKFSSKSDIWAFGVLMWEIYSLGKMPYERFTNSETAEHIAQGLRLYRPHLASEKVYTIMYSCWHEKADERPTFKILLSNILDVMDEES
Tyk2, sequence (P29597 whole entry, species assumed): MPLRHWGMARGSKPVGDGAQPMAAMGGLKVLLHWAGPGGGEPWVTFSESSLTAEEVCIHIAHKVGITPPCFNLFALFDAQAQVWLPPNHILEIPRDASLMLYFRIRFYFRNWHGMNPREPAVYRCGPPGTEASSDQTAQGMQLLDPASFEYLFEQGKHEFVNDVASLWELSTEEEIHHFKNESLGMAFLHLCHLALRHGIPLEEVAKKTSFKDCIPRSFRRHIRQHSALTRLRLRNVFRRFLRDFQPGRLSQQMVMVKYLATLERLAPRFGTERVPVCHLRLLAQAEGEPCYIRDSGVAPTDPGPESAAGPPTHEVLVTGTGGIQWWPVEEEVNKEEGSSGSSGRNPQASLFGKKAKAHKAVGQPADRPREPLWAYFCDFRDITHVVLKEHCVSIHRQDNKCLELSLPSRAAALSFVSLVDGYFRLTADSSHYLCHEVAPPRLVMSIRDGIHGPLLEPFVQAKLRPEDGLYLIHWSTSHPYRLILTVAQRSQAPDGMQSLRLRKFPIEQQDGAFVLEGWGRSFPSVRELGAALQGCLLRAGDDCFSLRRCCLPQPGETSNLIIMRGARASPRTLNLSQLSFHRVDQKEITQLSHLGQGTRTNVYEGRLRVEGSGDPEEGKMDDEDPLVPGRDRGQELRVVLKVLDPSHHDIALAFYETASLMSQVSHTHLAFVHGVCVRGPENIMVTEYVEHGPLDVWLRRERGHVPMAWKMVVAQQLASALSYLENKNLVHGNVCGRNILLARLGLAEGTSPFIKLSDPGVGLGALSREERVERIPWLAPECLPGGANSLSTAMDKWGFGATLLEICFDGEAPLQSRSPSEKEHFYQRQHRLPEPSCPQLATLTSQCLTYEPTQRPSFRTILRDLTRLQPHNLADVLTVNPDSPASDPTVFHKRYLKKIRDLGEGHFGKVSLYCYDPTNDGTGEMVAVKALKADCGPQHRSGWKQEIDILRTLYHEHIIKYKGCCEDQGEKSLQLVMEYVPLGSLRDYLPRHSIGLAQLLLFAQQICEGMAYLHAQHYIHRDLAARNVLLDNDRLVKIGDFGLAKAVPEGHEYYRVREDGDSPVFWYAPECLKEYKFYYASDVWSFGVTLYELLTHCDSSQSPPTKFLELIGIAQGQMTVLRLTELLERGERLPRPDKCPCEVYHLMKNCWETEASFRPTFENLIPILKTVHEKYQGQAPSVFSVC
Lck, sequence (P06239 whole entry, species assumed): as the sequence (P06239 whole entry, species assumed) above
Lyn, sequence (P07948 whole entry, species assumed): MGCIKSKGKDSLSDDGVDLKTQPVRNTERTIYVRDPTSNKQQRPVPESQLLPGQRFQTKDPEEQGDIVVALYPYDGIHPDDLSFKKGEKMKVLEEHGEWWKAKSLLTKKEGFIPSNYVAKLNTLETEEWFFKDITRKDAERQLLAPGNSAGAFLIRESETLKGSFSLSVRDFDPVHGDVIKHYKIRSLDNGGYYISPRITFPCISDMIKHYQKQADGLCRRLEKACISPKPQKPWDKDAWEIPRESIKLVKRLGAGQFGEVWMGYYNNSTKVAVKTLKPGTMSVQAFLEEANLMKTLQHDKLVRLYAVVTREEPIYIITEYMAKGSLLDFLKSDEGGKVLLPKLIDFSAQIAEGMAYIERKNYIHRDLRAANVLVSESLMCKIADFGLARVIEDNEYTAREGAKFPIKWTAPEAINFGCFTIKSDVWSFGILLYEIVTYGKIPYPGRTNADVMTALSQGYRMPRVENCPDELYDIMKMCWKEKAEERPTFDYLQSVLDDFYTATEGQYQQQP

In the case of `N#C/C(=C\c1ccc(O)c(O)c1)C(=O)NCc1ccccc1` [AG-490], the Jak3 autokinase activity result at Jak3 [1] is “competent to inhibit”. Besides, on Jak1, the “inhibition of Jak1” value is on record as “does not inhibit”. Besides, the “T-cell proliferation mediated by TCGFs” value in [2] is “competent to inhibit”. Further, on p56Lck, the “effect on p56Lck” value is on record as “neither of those two agents affects”. Also, the “effect on Zap70” value on Zap70 is on record as “neither of those two agents affects”. For the same compound, on Syk, the “inhibition of Syk” value is “does not inhibit”. For the same compound, at Lyn, the “inhibition of Lyn” value is “does not inhibit”. Moreover, at Btk, the “inhibition of Btk” value was “does not inhibit”. On Tyk2, the “inhibition of Tyk2” value is given as “does not inhibit”. For the same compound, the “inhibition of Lck” value on Lck is listed as “does not inhibit”. Besides, at Src, the “inhibition of Src” value is listed as “does not inhibit”. In data set [3], the “IL2Rα expression (ribonuclease protection assays)” value is reported as “failed to affect”, the “Stat5a/b DNA binding of ex vivo IL-2 stimulated GICs” value is reported as “reduced” and the “graft infiltration of mononuclear cells (GICs)” value is listed as “reduced”. In addition, in the data set with Jak, the “effects on closest related family member Jak” value is “exert similar effects”.
As for `CCCCCCCCCCCC1C=C/C(=C/c2[nH]c(-c3ccc[nH]3)cc2OCc2ccccc2)N1.Cl` (stereo not drawn) [PNU156804], the Jak3 autokinase activity result at Jak3 [1] is on record as “competent to inhibit”. In addition, the “T-cell proliferation mediated by TCGFs” value in data set [2] is reported as “competent to inhibit”. The “effect on p56Lck” value at p56Lck is reported as “neither of those two agents affects”. In addition, the “effect on Zap70” value at Zap70 was “neither of those two agents affects”. Further, the “inhibition of Jak3 mediated T-cell growth by IL-2 compared to prolactin (Jak2)” value in [4] is “greater specificity”. Further, the IC50 (usually the concentration that gives 50% inhibition) in [5] (Homo sapiens, IL-2 driven T-cell growth, 16 hours drug, [3H]-thymidine, read-out: IC50, disrupting cell growth) was ~10 µM. In the data set with allograft, the allograft survival result is on record as “prolongs allograft survival”, the “interaction with CsA” value was “synergistically” and the “interaction with RAPA” value is on record as “additively”. The “Jak3 autophosphorylation as compared with Jak2” value at Jak3 [6] is listed as “preferentially inhibited”.
As for `CO[C@H]1C[C@@H]2CC[C@@H](C)[C@@](O)(O2)C(=O)C(=O)N2CCCC[C@H]2C(=O)O[C@H]([C@H](C)C[C@@H]2CC[C@@H](O)[C@H](OC)C2)CC(=O)[C@H](C)/C=C(\C)[C@@H](O)[C@@H](OC)C(=O)[C@H](C)C[C@H](C)/C=C/C=C/C=C/1C` [RAPA, rapamycin, reference compound], the “peripheral blood counts (PBC)” value in [7] is on record as “reduced PBC compared to untreated rats, in contrast to SRL”.
Consider `COc1cc(C2C(C(=O)Nc3ccc(Cl)c(Cl)c3)=C(C)NC(C)=C2C(=O)Nc2ccc(Cl)c(Cl)c2)ccc1O` [compound 637712], for which the “proliferation of PHA-activated human T cells following stimulation with IL-2 (FIG. 7A)” value (“proliferation … (FIG. 7A)” below) in data set [5] is “blocked”.
For the compound `N#CCCN(CCC#N)c1ccc(C(Sc2ccccc2)C(NC(=O)c2cc([N+](=O)[O-])ccc2Cl)C(=O)Sc2ccccc2)cc1` (stereo not drawn) [compound 640674], in [5], the “proliferation … (FIG. 7A)” value is “blocked”.
In the case of `CC1(C)c2ccccc2N2O[C@@H]3C(=O)N(c4ccccc4)C(=O)[C@@H]3C21c1ccccc1` (stereo partly drawn) [compound 643423], the “proliferation … (FIG. 7A)” value in [5] is “blocked”.
As to `CCCCCCCC(=O)OCC(C[As](=O)(O)O)OC(=O)CCCCCCC` (stereo not drawn) [compound 655906], in data set [5], the “proliferation … (FIG. 7A)” value is reported as “blocked”.
In the case of `CC(=O)Oc1ccc2cc(-c3ccccc3OC(C)=O)c(=O)oc2c1` [compound 673137], in [5], the “proliferation … (FIG. 7A)” value is given as “blocked”.
As for `O=C1c2ccccc2C(=O)[C@@]23O[C@@]12C1(Oc2cccc4cccc(c24)O1)[C@@H]1O[C@@H]1[C@@H]3O` [compound 683332], the “proliferation … (FIG. 7A)” value in [5] is recorded as “blocked”.
Still for that read-out and setting: the entry for `Cc1oc2c(c1C)S(=O)(=O)C(C#N)C(c1ccccc1)N2` (stereo not drawn) [compound 693812] is “blocked”.
